Measured values: the Kinase Knowledgebase extract (Sharma et al. 2016)

Target: EGFR (UniProt P00533)
Sequence (P00533 whole entry, looked up): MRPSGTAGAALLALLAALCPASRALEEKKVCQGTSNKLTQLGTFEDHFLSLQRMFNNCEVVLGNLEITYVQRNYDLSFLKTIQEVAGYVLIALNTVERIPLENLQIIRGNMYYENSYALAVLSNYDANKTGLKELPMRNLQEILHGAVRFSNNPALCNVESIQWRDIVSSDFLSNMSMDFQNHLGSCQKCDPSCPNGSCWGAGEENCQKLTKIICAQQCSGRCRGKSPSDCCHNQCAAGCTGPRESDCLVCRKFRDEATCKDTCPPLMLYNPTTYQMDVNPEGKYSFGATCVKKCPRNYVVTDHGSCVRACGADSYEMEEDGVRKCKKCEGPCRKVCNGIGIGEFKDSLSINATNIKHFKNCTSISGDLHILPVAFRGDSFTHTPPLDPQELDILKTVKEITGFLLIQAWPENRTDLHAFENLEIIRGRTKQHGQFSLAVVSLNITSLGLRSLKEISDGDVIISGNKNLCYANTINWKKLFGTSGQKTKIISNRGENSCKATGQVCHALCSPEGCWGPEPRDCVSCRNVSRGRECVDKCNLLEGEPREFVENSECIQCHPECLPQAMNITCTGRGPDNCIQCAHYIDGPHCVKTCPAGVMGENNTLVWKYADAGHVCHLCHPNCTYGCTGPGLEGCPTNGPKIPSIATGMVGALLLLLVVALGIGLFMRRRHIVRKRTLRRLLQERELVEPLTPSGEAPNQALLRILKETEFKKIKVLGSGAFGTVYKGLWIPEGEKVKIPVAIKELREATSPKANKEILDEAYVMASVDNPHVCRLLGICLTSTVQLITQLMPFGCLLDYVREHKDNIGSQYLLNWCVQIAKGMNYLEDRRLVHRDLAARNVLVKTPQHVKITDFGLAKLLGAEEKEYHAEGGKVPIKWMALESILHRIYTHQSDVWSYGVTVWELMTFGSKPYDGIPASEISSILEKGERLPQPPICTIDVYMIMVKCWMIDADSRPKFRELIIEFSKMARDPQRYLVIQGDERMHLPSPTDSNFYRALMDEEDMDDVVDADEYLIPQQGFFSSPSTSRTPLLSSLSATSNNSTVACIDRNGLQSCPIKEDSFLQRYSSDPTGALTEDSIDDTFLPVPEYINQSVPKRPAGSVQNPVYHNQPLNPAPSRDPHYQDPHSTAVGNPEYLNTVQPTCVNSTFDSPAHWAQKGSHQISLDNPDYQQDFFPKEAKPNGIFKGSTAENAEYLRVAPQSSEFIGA

IC50, ≤ 1000 nM:
COc1cc2c(NS(=O)(=O)c3cccc(Br)c3)ncnc2cc1OCCN1CCOCC1, COc1cc2c(NS(=O)(=O)c3ccccc3C)ncnc2cc1OCCCN1CCOCC1, CCN(CC)CCOc1cc2ncnc(NS(=O)(=O)c3ccc(Cl)cc3)c2cc1OC, COc1cc2c(NS(C)(=O)=O)ncnc2cc1OC1CCN(C)CC1, COc1cc2c(NS(=O)(=O)c3cccc(Cl)c3)ncnc2cc1OCCN1CCCCC1, COc1cc2c(NS(C)(=O)=O)ncnc2cc1OCCN1CCN(C)CC1, COc1cc2c(NS(=O)(=O)c3ccc(Cl)s3)ncnc2cc1OC1CCN(C)CC1, CCN(CC)CCOc1cc2ncnc(NS(=O)(=O)c3ccccc3Br)c2cc1OC, COc1cc2c(NS(=O)(=O)c3ccc(C)cc3)ncnc2cc1OCCCN(C)C, COc1cc2c(NS(=O)(=O)c3c(C)cc(C)cc3C)ncnc2cc1OCCCN(C)C, COc1cc2c(NS(=O)(=O)c3ccc(C(C)(C)C)cc3)ncnc2cc1OCCN1CCN(C)CC1, COc1cc2c(NS(=O)(=O)c3ccccc3C)ncnc2cc1OCCN1CCCCC1, COc1cc2c(NS(=O)(=O)c3cccc4cccnc34)ncnc2cc1OC1CCN(C)CC1, COc1ccc(S(=O)(=O)Nc2ncnc3cc(OCCN4CCCCC4)c(OC)cc23)cc1OC, COc1cc2c(NS(=O)(=O)c3ccc(F)cc3)ncnc2cc1OCCCN1CCOCC1, COc1cc2c(NS(=O)(=O)c3ccccc3C)ncnc2cc1OC1CCN(C)CC1, COc1cc2c(NS(=O)(=O)c3cccc4cccnc34)ncnc2cc1OCCCN(C)C, COc1ccc(S(=O)(=O)Nc2ncnc3cc(OCCN4CCN(C)CC4)c(OC)cc23)cc1, COc1cc2c(NS(=O)(=O)c3ccc(C)cc3)ncnc2cc1OCCN1CCN(C)CC1, COc1cc2c(NS(=O)(=O)c3ccccc3Cl)ncnc2cc1OCCN1CCN(C)CC1, COc1cc2c(NS(=O)(=O)c3ccc(F)cc3)ncnc2cc1OCCN1CCOCC1, COc1cc2c(NS(=O)(=O)c3ccccc3Cl)ncnc2cc1OC1CCN(C)CC1, COc1cc2c(NS(=O)(=O)c3ccc(Cl)cc3Cl)ncnc2cc1OCCCN1CCOCC1, COc1cc2c(NS(=O)(=O)c3cccc4cccnc34)ncnc2cc1OCCCN1CCOCC1, COc1cc2c(NS(=O)(=O)c3ccc(Cl)s3)ncnc2cc1OCCN1CCCCC1, COc1cc2c(NS(=O)(=O)c3ccc(C)cc3)ncnc2cc1OC1CCN(C)CC1, COc1cc2c(NS(=O)(=O)c3ccc(C(F)(F)F)cc3)ncnc2cc1OCCN1CCOCC1, COc1cc2c(NS(=O)(=O)c3cccc(Br)c3)ncnc2cc1OCCCN(C)C, COc1cc2c(NS(=O)(=O)c3cccc(Cl)c3)ncnc2cc1OCCN1CCOCC1, COc1cc2c(NS(=O)(=O)c3ccc(Cl)cc3)ncnc2cc1OCCCN1CCOCC1, COc1cc2c(NS(=O)(=O)c3ccc(Br)cc3)ncnc2cc1OCCCN(C)C, COc1cc2c(NS(=O)(=O)c3ccccc3)ncnc2cc1OCCN1CCOCC1, COc1cc2c(NS(=O)(=O)c3c(C)cc(C)cc3C)ncnc2cc1OCCN1CCCCC1, COc1cc2c(NS(=O)(=O)c3cc(Cl)cc(Cl)c3)ncnc2cc1OCCN1CCN(C)CC1, COc1cc2c(NS(=O)(=O)c3ccc(Sc4ccccc4)s3)ncnc2cc1OC1CCN(C)CC1, COc1cc2c(NS(=O)(=O)c3ccc(Cl)cc3)ncnc2cc1OCCCN(C)C, COc1cc2c(NS(=O)(=O)c3ccc(Cl)cc3)ncnc2cc1OCCN1CCN(C)CC1, COc1cc2c(NS(=O)(=O)c3cn(C)cn3)ncnc2cc1OCCN1CCOCC1, CCN(CC)CCOc1cc2ncnc(NS(=O)(=O)c3cccc(Br)c3)c2cc1OC, COc1cc2c(NS(=O)(=O)c3ccc4ccccc4c3)ncnc2cc1OCCN1CCCCC1, COc1cc2c(NS(=O)(=O)c3cn(C)cn3)ncnc2cc1OCCN1CCCCC1, CCN(CC)CCOc1cc2ncnc(NS(=O)(=O)c3cn(C)cn3)c2cc1OC, COc1ccc(S(=O)(=O)Nc2ncnc3cc(OCCCN(C)C)c(OC)cc23)cc1OC, COc1cc2c(NS(=O)(=O)c3ccc4ccccc4c3)ncnc2cc1OC1CCN(C)CC1, COc1cc2c(NS(=O)(=O)c3c(C)cc(C)cc3C)ncnc2cc1OCCN1CCOCC1, COc1cc2c(NS(=O)(=O)c3ccc(OC(F)(F)F)cc3)ncnc2cc1OC1CCN(C)CC1, COc1cc2c(NS(=O)(=O)c3ccc(C(C)(C)C)cc3)ncnc2cc1OCCCN(C)C, COc1cc2c(NS(=O)(=O)c3ccc(Cl)s3)ncnc2cc1OCCN1CCN(C)CC1, COc1cc2c(NS(=O)(=O)c3ccccc3Br)ncnc2cc1OCCCN(C)C, CCN(CC)CCOc1cc2ncnc(NS(=O)(=O)c3ccc(Cl)s3)c2cc1OC, CCN(CC)CCOc1cc2ncnc(NS(=O)(=O)c3ccccc3Cl)c2cc1OC, COc1cc2c(NS(=O)(=O)c3ccc(F)cc3)ncnc2cc1OCCN1CCN(C)CC1, COc1cc2c(NS(=O)(=O)c3ccc(C)cc3)ncnc2cc1OCCCN1CCOCC1, COc1cc2c(NS(=O)(=O)c3cccc(Cl)c3Cl)ncnc2cc1OCCN1CCOCC1, COc1cc2c(NS(=O)(=O)c3cccc(Br)c3)ncnc2cc1OC1CCN(C)CC1, COc1cc2c(NS(=O)(=O)c3ccc(Sc4cccs4)s3)ncnc2cc1OCCN1CCOCC1, CCN(CC)CCOc1cc2ncnc(NS(=O)(=O)Cc3ccccc3)c2cc1OC, COc1cc2c(NS(=O)(=O)c3ccc4ccccc4c3)ncnc2cc1OCCN1CCN(C)CC1, COc1cc2c(NS(=O)(=O)c3cc(Cl)cc(Cl)c3)ncnc2cc1OCCCN(C)C, COc1cc2c(NS(=O)(=O)c3ccc(Br)cc3)ncnc2cc1OC1CCN(C)CC1, CCN(CC)CCOc1cc2ncnc(NS(C)(=O)=O)c2cc1OC, COc1cc2c(NS(=O)(=O)c3ccc4ccccc4c3)ncnc2cc1OCCN1CCOCC1, CCN(CC)CCOc1cc2ncnc(NS(=O)(=O)c3cccc(Cl)c3)c2cc1OC, COc1cc2c(NS(=O)(=O)c3cccc(Cl)c3)ncnc2cc1OCCN1CCN(C)CC1, COc1cc2c(NS(=O)(=O)c3ccc(Br)cc3)ncnc2cc1OCCN1CCN(C)CC1, COc1cc2c(NS(=O)(=O)c3cccc(Br)c3)ncnc2cc1OCCN1CCN(C)CC1, COc1cc2c(NS(=O)(=O)c3ccccc3Br)ncnc2cc1OCCCN1CCOCC1, CCN(CC)CCOc1cc2ncnc(NS(=O)(=O)c3ccc(C)cc3)c2cc1OC, CCN(CC)CCOc1cc2ncnc(NS(=O)(=O)c3cc(OC)ccc3OC)c2cc1OC, COc1ccc(S(=O)(=O)Nc2ncnc3cc(OCCN4CCCCC4)c(OC)cc23)cc1, COc1cc2c(NS(=O)(=O)Cc3ccccc3)ncnc2cc1OCCCN(C)C, COc1cc2c(NS(=O)(=O)Cc3ccccc3)ncnc2cc1OCCN1CCCCC1, CCN(CC)CCOc1cc2ncnc(NS(=O)(=O)c3c(C)cc(C)cc3C)c2cc1OC, COc1cc2c(NS(=O)(=O)c3cccc(Cl)c3Cl)ncnc2cc1OCCCN(C)C, COc1cc2c(NS(=O)(=O)Cc3ccccc3)ncnc2cc1OC1CCN(C)CC1, COc1ccc(S(=O)(=O)Nc2ncnc3cc(OC4CCN(C)CC4)c(OC)cc23)cc1, COc1cc2c(NS(=O)(=O)c3ccc(Cl)s3)ncnc2cc1OCCN1CCOCC1, COc1cc2c(NS(=O)(=O)c3ccccc3)ncnc2cc1OCCN1CCCCC1, COc1cc2c(NS(=O)(=O)c3ccccc3Br)ncnc2cc1OCCN1CCOCC1, COc1cc2c(NS(=O)(=O)c3cccc4cccnc34)ncnc2cc1OCCN1CCCCC1, CCN(CC)CCOc1cc2ncnc(NS(=O)(=O)c3c(C)noc3C)c2cc1OC, COc1cc2c(NS(=O)(=O)c3cc(Cl)c(Cl)s3)ncnc2cc1OCCN1CCOCC1, CCN(CC)CCOc1cc2ncnc(NS(=O)(=O)c3ccc(Sc4ccccc4)s3)c2cc1OC, COc1ccc(OC)c(S(=O)(=O)Nc2ncnc3cc(OCCN4CCOCC4)c(OC)cc23)c1, COc1cc2c(NS(=O)(=O)c3ccc(Br)cc3)ncnc2cc1OCCN1CCOCC1, COc1cc2c(NS(=O)(=O)c3ccc(Cl)cc3)ncnc2cc1OCCN1CCOCC1, COc1cc2c(NS(=O)(=O)c3ccc(Sc4cccs4)s3)ncnc2cc1OCCN1CCCCC1, COc1cc2c(NS(=O)(=O)c3cccc(Cl)c3)ncnc2cc1OCCCN1CCOCC1, COc1cc2c(NS(=O)(=O)c3cccc4cccnc34)ncnc2cc1OCCN1CCOCC1
